Assay results published in patent US20140045807A2, “THE USE OF 3-METHOXY-PREGNENOLONE FOR THE PREPARATION OF A DRUG FOR TREATING A TRAUMATIC BRAIN INJURY” (priority 2004, published 2014).

What was measured:
[1] = tested on: human neuroblastoma HS-SY5Y cells; test: Cytotoxicity of okadaic acid, steroid protection (LDH release); format: cell-based; details: 24 hours, simultaneous addition, increasing concentrations
From the text: FIG. 6: Toxicity of okadaic acid. Steroid protection. […] Cell death was indicated by the release of lactate dehydrogenase (LDH) in the culture medium.
Okadaic acid is a protein phosphatase inhibiter. Thus, the hyperphosphorylation of tau protein is implicated in microtubule depolymerization and in human neuroblastoma HS-SY5Y cell death. The exposure of SY5Y cell cultures to okadaic acid does in fact cause significant cell death.

[2] = tested on: Sprague Dawley rats in the FST; test: Forced swimming test (FST); format: in vivo, rat; details: 10 mg/kg subcutaneously, 24, 5, 1 h before testing
From the text: (A) 3-methoxy-PREG (43B) decreased rat immobility in the FST showing antidepressant activity. Results are expressed as mean±SEM (n=6-14). One-way ANOVA: Treatment (F5, 46: 4.30 P<0.01). ***P<0.001, *P<0.05 vs. water and sesame oil (Fisher LSD test). […] Results are expressed as mean±SEM (n=6-14). One-way ANOVA: Treatment (F5, 46: 3.57 P<0.01). **P<0.01, *P<0.05 vs. water and sesame oil (Fisher LSD test). […] One-way ANOVA: Treatment (F5, 46: 3.57 P<0.01). **P<0.01, *P<0.05 vs. water and sesame oil (Fisher LSD test).
Drugs were administered following the traditional dosing regimen used in the FST consisting of three injections: 24, 5, 1 h before testing.
The FST is currently the most widely used animal model for assessing depression related behavior and antidepressant drug activity in rodents (Cryan et al., Neubiorev. 2005). Rats are placed in an inescapable cylinder of water where they develop an immobile posture believed to reflect a “depressive”-like state. The time rats spend immobile is decreased by drugs exerting antidepressant activity.
Additional behaviors can be detected in the FST; namely, climbing and swimming. It has been shown that swimming behavior is sensitive to SSRIs such as fluoxetine whereas climbing is sensitive to norepinephrine re-uptake inhibitors (NRI) such as desipramine.

[3] = tested on: transgenic mice expressing the longest human tau protein isoform; test: RotaRod test in transgenic mice expressing the longest human tau protein isoform; format: in vivo, mouse; details: subcutaneous implant releasing 0.38 mg of steroid per day for 90 days
From the text: FIG. 8: Effect of molecule 43B on the motor incoordination of transgenic mice expressing the longest isoform of human tau protein in their neurons. […] The maximum speed of rotation of the RotaRod drum before the […] falls is a measurement of motor coordination (higher values correspond to a better treatment effect).
In order to evaluate the therapeutic potential of 43B to treat Alzheimer-type neurodegenerative diseases, a homozygous transgenic line of mice, such as described by Götz (EMBO J. 1995; 14(7):1304-13), can be used.
These mice express the longest human tau protein isoform. They present symptoms of neurological dysfunction expressed as muscular weakness and a reduction in motor coordination which correlate histologically with the appearance of abnormal neurites and hyperphosphorylated tau proteins as is seen in Alzheimer's disease. This pathological phosphorylation decreases the affinity of tau for microtubules and favors its aggregation.
A breeding program was undertaken at Bicêtre and genotyping made it possible to select mice homozygous for the transgene. […] These implants released 0.38 mg of steroid per day for 90 days. The progression of motor incoordination was followed by repeated RotaRod tests.

[4] = molecular target: purified tubulin and MAP2 (Homo sapiens, UniProt P11137); test: MAP2-induced polymerization of microtubules in vitro (optical density at 345 nm); format: biochemical; details: for effect on microtubule polymerization: MAP2 and tubulin with GTP, 37° C.; for Activity (increase in optical density at 345 nm): purified tubulin and MAP2, 37° C., GTP
Sequence of purified tubulin and MAP2 (P11137 whole entry): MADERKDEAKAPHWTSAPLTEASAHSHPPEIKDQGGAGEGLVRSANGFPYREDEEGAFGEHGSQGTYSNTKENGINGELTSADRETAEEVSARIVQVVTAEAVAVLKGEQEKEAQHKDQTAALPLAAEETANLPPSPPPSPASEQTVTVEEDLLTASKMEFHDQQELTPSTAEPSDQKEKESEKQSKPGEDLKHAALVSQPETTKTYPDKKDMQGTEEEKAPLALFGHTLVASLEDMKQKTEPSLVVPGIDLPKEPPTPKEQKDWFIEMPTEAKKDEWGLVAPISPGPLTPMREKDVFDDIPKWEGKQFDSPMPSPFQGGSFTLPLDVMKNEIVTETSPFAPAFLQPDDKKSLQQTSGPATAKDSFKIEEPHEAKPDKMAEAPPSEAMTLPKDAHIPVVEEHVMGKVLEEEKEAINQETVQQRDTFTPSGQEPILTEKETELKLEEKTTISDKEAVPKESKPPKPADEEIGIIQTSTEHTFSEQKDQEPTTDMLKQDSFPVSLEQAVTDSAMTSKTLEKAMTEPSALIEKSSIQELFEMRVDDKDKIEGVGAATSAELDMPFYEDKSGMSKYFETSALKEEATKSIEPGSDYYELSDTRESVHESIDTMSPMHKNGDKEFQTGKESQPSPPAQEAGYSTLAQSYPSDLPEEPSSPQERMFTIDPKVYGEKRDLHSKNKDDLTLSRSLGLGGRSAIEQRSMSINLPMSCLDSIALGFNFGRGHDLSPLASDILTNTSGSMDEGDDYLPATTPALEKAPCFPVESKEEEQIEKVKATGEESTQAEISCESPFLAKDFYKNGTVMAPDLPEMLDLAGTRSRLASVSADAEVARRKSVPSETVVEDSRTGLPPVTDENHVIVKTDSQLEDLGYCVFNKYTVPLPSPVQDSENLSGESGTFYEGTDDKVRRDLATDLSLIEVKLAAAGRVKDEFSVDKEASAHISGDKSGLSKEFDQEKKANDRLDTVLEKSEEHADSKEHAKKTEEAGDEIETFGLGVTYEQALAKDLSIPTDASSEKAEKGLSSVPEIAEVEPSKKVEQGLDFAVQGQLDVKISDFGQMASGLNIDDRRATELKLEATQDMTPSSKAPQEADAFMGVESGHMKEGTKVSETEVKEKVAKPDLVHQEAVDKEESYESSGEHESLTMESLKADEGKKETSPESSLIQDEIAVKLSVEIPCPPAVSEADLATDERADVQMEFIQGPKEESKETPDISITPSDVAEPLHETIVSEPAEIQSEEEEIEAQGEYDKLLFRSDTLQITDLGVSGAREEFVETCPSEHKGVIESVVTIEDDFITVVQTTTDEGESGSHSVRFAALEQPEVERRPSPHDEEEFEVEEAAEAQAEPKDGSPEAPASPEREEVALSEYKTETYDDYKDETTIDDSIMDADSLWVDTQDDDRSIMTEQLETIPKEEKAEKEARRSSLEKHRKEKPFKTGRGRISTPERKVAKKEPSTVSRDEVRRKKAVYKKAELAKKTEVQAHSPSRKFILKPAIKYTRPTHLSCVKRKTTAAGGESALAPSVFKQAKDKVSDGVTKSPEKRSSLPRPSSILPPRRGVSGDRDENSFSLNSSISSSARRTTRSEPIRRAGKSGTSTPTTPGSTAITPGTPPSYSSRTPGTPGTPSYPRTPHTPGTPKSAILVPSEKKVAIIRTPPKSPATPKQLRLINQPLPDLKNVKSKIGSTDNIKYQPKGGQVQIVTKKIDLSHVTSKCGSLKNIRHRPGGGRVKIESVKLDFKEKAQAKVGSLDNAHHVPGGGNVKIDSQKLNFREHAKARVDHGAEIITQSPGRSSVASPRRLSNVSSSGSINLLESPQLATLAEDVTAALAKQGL
Procedure: Purified MAP2 and tubulin are mixed in the presence of GTP at 4° C. in a spectrophotometer cuvette. Polymerization is induced by heating at 37° C. and is followed by the increase in optical density (OD) which indicates the quantity of polymers formed.
This in vitro test measures the effect of molecules on the MAP2-induced polymerization of microtubules. This polymerization occurs when MAP2 proteins and tubulin are mixed at adequate concentrations in the presence of GTP. It is accompanied by an increase in optical density measured at 345 nm for 15 to 30 minutes with a UNICON spectrophotometer thermostated at 37° C. (FIG. 1).
Activity is measured by the increase in optical density at 345 nm of a mixture of purified tubulin and MAP2, incubated at 37° C. in the presence of GTP.

[5] = tested on: α-tubulin forms (Tyr/Glu-Tub, Acet-Tub) in rat hippocampus; test: Microtubule dynamics in rat hippocampus after single administration; format: in vivo; details: 10 mg/kg subcutaneously, 3 h following injection
From the text: Mean±SEM, n=6 per group. **p<0.01, *[…] vs sesame oil.
The effects produced by neurosteroids were compared with those produced by acute administration of the antidepressant drug fluoxetine (selective serotonin reuptake inhibitor; SSRI).

[6] = tested on: PC12 cells; test: Neuritic growth / sprouting in PC12 cells with NGF; format: cell-based, rat; details: 30 μM, after 3 days of culture, with NGF
Procedure: Each molecule was tested in three culture wells. Measurements were taken for 200 cells per well using Scion Image software.
Neurite (neurite) length was measured for 200 cells per well after 2, 5, and 8 days of culture.
Stimulation of neuritic sprouting is conducted on PC12 cells differentiated in the presence of NGF (10 ng/ml) and the steroid being tested (30 μM) for 3 days. For each condition, the average length of the longest 200 neurites in each cell is measured simultaneously for 3 cultures.

[7] = tested on: PC12 cell line; test: Cellular toxicity test; format: cell-based, rat; details: concentrations as high as solubility limits (approximately 50 μM)
Procedure: Cellular toxicity tests are carried out routinely on the PC12 cell line.

[8] = tested on: PC12 cells; test: Retraction of neurites induced by nocodazole; format: cell-based, rat; details: pretreated one hour at 30 μM, nocodazole 15 minutes
From the text: FIG. 5: Retraction of neurites (neurites) induced by nocodazole.
Nocodazole is a microtubule depolymerizing agent. Its addition to PC12 cell cultures, differentiated in the presence of NGF, causes neurites to retract as a result of the depolymerization of their microtubules.

[9] = molecular target: MAP2 (Homo sapiens, UniProt P11137); test: Binding (affinity) by displacement of PREG-^3H
Sequence of MAP2 (P11137 whole entry): as above
Procedure: Binding (affinity) is measured by the displacement of PREG-^3H.

[10] = molecular target: T1, human progesterone receptor(PR) (Homo sapiens, UniProt P06401); test: Test of progesterone receptor agonist activity (luciferase transactivation, HEK293T); format: cell-based; details: increasing amounts, 24 hours
T1 construct: expressed in transfected cells; host or cells: HEK293T
T1 sequence (P06401 1-933): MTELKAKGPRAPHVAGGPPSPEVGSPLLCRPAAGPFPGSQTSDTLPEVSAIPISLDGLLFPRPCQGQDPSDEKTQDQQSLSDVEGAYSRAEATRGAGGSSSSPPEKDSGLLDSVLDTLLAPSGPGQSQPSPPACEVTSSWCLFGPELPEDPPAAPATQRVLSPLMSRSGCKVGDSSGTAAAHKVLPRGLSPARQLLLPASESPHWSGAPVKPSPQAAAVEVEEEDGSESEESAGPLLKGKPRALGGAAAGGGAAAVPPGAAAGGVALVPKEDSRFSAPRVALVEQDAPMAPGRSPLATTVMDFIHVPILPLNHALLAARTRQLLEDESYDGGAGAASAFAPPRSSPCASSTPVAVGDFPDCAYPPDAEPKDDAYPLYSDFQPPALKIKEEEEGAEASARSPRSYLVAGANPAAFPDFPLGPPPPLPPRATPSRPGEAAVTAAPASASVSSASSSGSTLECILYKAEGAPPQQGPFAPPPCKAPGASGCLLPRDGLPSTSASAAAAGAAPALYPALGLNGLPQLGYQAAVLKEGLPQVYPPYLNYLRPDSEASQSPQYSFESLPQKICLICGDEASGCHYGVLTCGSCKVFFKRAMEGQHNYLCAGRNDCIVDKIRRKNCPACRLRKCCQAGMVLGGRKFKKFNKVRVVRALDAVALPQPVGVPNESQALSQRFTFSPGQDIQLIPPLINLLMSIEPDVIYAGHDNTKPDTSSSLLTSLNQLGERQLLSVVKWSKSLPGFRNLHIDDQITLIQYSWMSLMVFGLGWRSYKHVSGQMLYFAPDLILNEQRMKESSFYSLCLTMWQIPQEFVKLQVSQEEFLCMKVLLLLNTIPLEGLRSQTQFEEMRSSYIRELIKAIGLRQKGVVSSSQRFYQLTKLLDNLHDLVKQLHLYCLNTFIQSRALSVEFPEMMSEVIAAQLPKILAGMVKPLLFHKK
Procedure: The main experimental setting used is the following: HEK293T cells were transiently transfected, using calcium phosphate precipitation technology, with expression vectors pSG5hPR (which permits expression of human progesterone receptor(PR)), pFC31-luc (contains the luciferase gene under the control of the MMTV promoter, which is in turn activated by binding of a progestin to progesterone receptor) and pcbetagal (which permits expression of betagalactosidase), and cultured during 24 hours with increasing amounts of various compositions: • 1. […] Test of progesterone receptor […] activity: transfected cells were cultured with progesterone (1 nM) and increasing amounts of RU486 (a well-known progesterone receptor antagonist) or 3-methoxy-pregnenolone. • With this setting, a compound with progesterone receptor antagonist activity competes with progesterone for the occupation of progesterone receptor and results in a progressive loss of transactivation activity when the amount of this compound is increased compared to progesterone.

[11] = 40 μM, compared to control kinetics with solvent alone

Compound | Activity (increase in optical density at 345 nm) [4] | Affinity (index of binding) [9] | also measured
CC(=O)[C@H]1CC[C@H]2[C@@H]3CC=C4C[C@@H](O)CC[C@]4(C)[C@H]3CC[C@]12C [PREG, Pregnenolone] | 100% of PREG |  | cell death caused by okadaic acid (LDH release) [1]: Cell death is decreased; rat climbing behavior in the FST [2]: not changed; rat swimming in the FST [2]: significantly increased; motor dysfunction (RotaRod) [3]: Only the 3-methoxy-PREG had a beneficial effect; Lag time of microtubule polymerization [4, 11]: decreased; polymerization rate and quantity of microtubules [4, 11]: clearly increase; effect on microtubule polymerization [4]: activates microtubule polymerization; Acet-Tub (marker of stable microtubules) [5]: significantly decreased; increase in the average length of the neurites [6]: 60%; cellular toxicity [7]: do not demonstrate toxicity; resistance of neurites to nocodazole [8]: makes the neurites resistant to nocodazole
CNCCC(Oc1ccc(C(F)(F)F)cc1)c1ccccc1 (stereo not shown) [fluoxetine] |  |  | Acet-Tub (marker of stable microtubules) [5]: tendency to increase; Tyr/Glu-Tub ratio (index of microtubule dynamics) [5]: did not change
CC(=O)[C@H]1[C@H](C)C[C@H]2[C@@H]3CC=C4C[C@@H](O)CC[C@]4(C)[C@H]3CC[C@@]21C [PREG-16α-methyl] | 70% of PREG | 80% of PREG | 
CC(=O)[C@H]1CC[C@H]2[C@@H]3CCC4=CC(=O)CC[C@]4(C)[C@H]3CC[C@]12C [progesterone, reference compound] |  |  | effect on microtubule polymerization [4]: do not stimulate polymerization; progesterone receptor agonist (transactivation) activity [10]: permits a transactivation activity
CC(=O)O[C@H](C)[C@H]1CC[C@H]2[C@@H]3CC=C4C[C@@H](O)CC[C@]4(C)[C@H]3CC[C@]12C [Pregna-5-ene-3β,20β-diol-20-acetate] | 108% of PREG | 60% of PREG | 
CC(=O)[C@H]1[C@@H](C)C[C@H]2[C@@H]3CC=C4C[C@@H](O)CC[C@]4(C)[C@H]3CC[C@@]21C [PREG-16β-methyl] | 67% of PREG | 63% of PREG | 
CO[C@H]1CC[C@@]2(C)C(CCC3C2CC[C@@]2(C)C3CC[C@@H]2[C@@H](C)O)C1 (stereo partly drawn) [3β-methoxy-5α-pregnane-20β-ol] | 65% of PREG | 65% of PREG | 
CO[C@H]1CC[C@@]2(C)C(=CC[C@H]3C4=CC[C@H](C(C)=O)[C@@]4(C)CC[C@@H]32)C1 [3β-methoxy-pregna-5,14-diene-20-one] | 50% of PREG | 102% of PREG | 
CO[C@H]1CC[C@@]2(C)C(=CC[C@@H]3[C@@H]2CC[C@@]2(C)[C@H]3CC[C@@]2(C(C)=O)C(Cl)Cl)C1 [3β-methoxy-pregna-5-ene-20-one-17α-dichloromethyl] | 113% of PREG | 53% of PREG | 
CO[C@H]1CC[C@@]2(C)[C@@H](CC[C@@H]3[C@@H]2CC[C@]2(C)[C@@H](C(C)=O)CC[C@@H]32)C1 [3β-methoxy-5α-pregnane-20-one] | 10% of PREG | 87% of PREG | 
pregnenolone sulfate [reference compound] |  |  | effect on microtubule polymerization [4]: do not stimulate polymerization
PREG-16α,17α-epoxy | 54% of PREG | 41% of PREG | 
CC(=O)[C@@]12C[C@@H]1C[C@H]1[C@@H]3CC=C4C[C@@H](O)CC[C@]4(C)[C@H]3CC[C@@]12C [PREG-16α,17α-methylene] | 49% of PREG | 62% of PREG | 
CC(=O)[C@H]1[C@H](C)C[C@H]2[C@@H]3CC[C@H]4C[C@@H](O)CC[C@]4(C)[C@H]3CC[C@@]21C [3β-hydroxy-5α-pregnane-20-one-16α-methyl] | 53% of PREG | 57% of PREG | 
